Several values for one entry are separate records, joined by “and”; a condition that tells them apart may be missing. Identical values can stand only once. Like-named read-outs stand apart in the source and are kept apart here.
Legend:
MDA-MB-231 = experiment: MTT cytotoxicity assay; assay type: cell-based, human
Protocol: (§1) The human primary (SW480) and metastatic (SW620) colon cancer, metastatic prostate cancer (PC3), breast adenocarcinoma (MDA-MB-231) and human immortal keratinocyte (HaCaT) cell lines were recruited from the American Type Culture Collection (ATCC). The cells were cultured in the recommended medium according to protocols (RPMI 1640 for PC3, MEM for SW480 and SW620, as well as DMEM for MDA-MB-231 and HaCaT cells) with addition of 10% FBS, penicillin (100 U/mL), and streptomycin (100 μg/mL) and cultured in 37 °C/5% CO2 in a humidified incubator. Then, the cells were passaged at a confluence of 80–90% by a treatment with 0.25% trypsin (Gibco Life Technologies) and used for studies.
(§2) They were added to 96-well plates with seeded normal and cancer cells (1 × 10^4 cells per well) and incubated for 72 h. MTT analysis was performed according to a previous study.

PC3 [1] = experiment: MTT cytotoxicity assay; assay type: cell-based, human
Protocol: as §1, §2

SW480 [2] = experiment: MTT cytotoxicity assay; assay type: cell-based, human
Protocol: as §1, §2

SW620 [3] = experiment: MTT cytotoxicity assay; assay type: cell-based, human
Protocol: as §1, §2

HaCaT [4] = experiment: MTT cytotoxicity assay, normal cells; assay type: cell-based; conditions: HaCaT, 72 h, human immortal keratinocytes (normal cells)
Protocol: as §1, §2

[5] = tested on: tested cancer cell lines (SW480, SW620, PC3, MDA-MB-231); experiment: MTT assay, mean over tested cancer cell lines; assay type: cell-based; conditions: Homo sapiens, mean of the four cancer cell lines
Protocol: They were added to 96-well plates with seeded normal and cancer cells (1 × 10^4 cells per well) and incubated for 72 h. MTT analysis was performed according to a previous study. […]

Trypan blue assay = assay type: cell-based, human; conditions: human, HaCaT cells, compound at IC50, 72 h, mean
Protocol: (§3) The total cell count was assessed by trypan blue exclusion dye assay using automated cell counter (Countess Invitrogen). Untreated cells were used as the control. Each experiment was repeated 5 times.

HaCaT [6] = experiment: Trypan blue assay; assay type: cell-based, human; conditions: compound at IC50, 72 h
Protocol: as §3

PC3 [7] = experiment: Trypan blue assay; assay type: cell-based, human; conditions: PC3, compound at IC50, 72 h
Protocol: as §3

SW480 [8] = experiment: Trypan blue assay; assay type: cell-based, human; conditions: SW480, compound at IC50, 72 h
Protocol: as §3

SW620 [9] = experiment: Trypan blue assay; assay type: cell-based, human; conditions: SW620, compound at IC50, 72 h
Protocol: as §3

HaCaT [10] = experiment: Annexin V-FITC/PI flow cytometry; assay type: cell-based, human; conditions: compound at IC50, 72 h, mean
Protocol: (§4) The apoptotic and necrotic cells treated with derivatives 2b, 4a, 4b were detected using FITC Annexin V Apoptosis Detection Kit I (BD Biosciences Pharmingen). Briefly, cells (2 × 10^5 cells/well) were seeded in 6-well plates in supplemented medium. […] Then cells were harvested, washed, and labeled with Annexin V-FITC and propidium iodide (PI) according to the manufacturer’s protocol. The stained cells were analyzed by flow cytometry. The cells were identified as early apoptotic (Annexin V+/PI−) or late apoptotic/necrotic (Annexin V+/PI+).

PC3 [11] = experiment: Annexin V-FITC/PI flow cytometry; assay type: cell-based, human; conditions: PC3, compound at IC50, 72 h, mean
Protocol: as §4

SW480 [12] = experiment: Annexin V-FITC/PI flow cytometry; assay type: cell-based, human; conditions: SW480, compound at IC50, 72 h, mean
Protocol: as §4

SW620 [13] = experiment: Annexin V-FITC/PI flow cytometry; assay type: cell-based, human; conditions: SW620, compound at IC50, 72 h
Protocol: as §4

IL-6 in HaCaT cells = experiment: Interleukin-6 ELISA; assay type: cell-based, human; conditions: compound at IC50, 72 h
Protocol: (§5) The concentration of Interleukin-6 (IL-6) was measured in cell culture supernatant using Interleukin IL-6 High Sensitivity ELISA kit (Diaclon SAS, Besancon Cedex, France). Cells (1 × 10^5 cells/well) were seeded in 12-well plates with medium for 24 h. […] After this incubation, the supernatants were collected and 100 μL of supernatant samples, control solutions and blank were added to precoated ELISA plate with the preceding plotting of the standard curve. Then 50 μL of diluted biotinylated antihuman interleukin-6 antibody was added and incubated at room temperature for 3 h. Afterward, the plate was washed three times and 100 μL streptavidin-HRP solution was added to each well. After 30 min incubation, the plate was washed again three times and 100 μL of tetramethylbenzidine (TMB) solution was added to each well. The plate was incubated for 15 min in the dark. The reaction was stopped by adding 100 μL of H2SO4 solution. The absorbance was estimated using a spectrophotometer at 450 nm (Microplate Spectrophotometer Thermo Scientific Multiskan GO).

IL-6 in PC3 cells = experiment: Interleukin-6 ELISA; assay type: cell-based, human; conditions: PC3, compound at IC50, 72 h
Protocol: as §5

IL-6 in SW480 cells = experiment: Interleukin-6 ELISA; assay type: cell-based, human; conditions: SW480, compound at IC50, 72 h
Protocol: as §5

IL-6 in SW620 cells = experiment: Interleukin-6 ELISA; assay type: cell-based, human; conditions: SW620, compound at IC50, 72 h
Protocol: as §5

[14] = SI = IC50 for normal cell line (HaCaT)/IC50 cancer cell line

For `CC(C)[C@@H]1CC[C@@H](C)C[C@H]1OC(=O)C1C(=O)Oc2ccccc2C1P(=O)(c1ccccc1)c1ccccc1` (mixture of isomers) [Compound 4a, (1R,2S,5R)-2-Isopropyl-5-methylcyclohexyl-4-(diphenylphosphoryl)-2-oxochromane-3-carboxylate], the IC50 (MDA-MB-231; MDA-MB-231, MTT, 72 h, human breast adenocarcinoma) was 25.3 ± 4.59 µM, the “SI MDA-MB-231” value (MDA-MB-231; [14]) was 0.60 and the IC50 (PC3 [1]; PC-3, MTT, 72 h, human metastatic prostate cancer) was 9.8 ± 2.02 µM. The “SI PC3” value (PC3 [1]; [14]) was 1.53, the “SI SW480” value (SW480 [2]; [14]) was 3.28 and the IC50 (SW480 [2]; SW480, MTT, 72 h, human primary colon cancer) was 4.6 ± 1.01 µM. For the same molecule, the “SI SW620” value (SW620 [3]; [14]) was 2.21, the IC50 (SW620 [3]; SW-620, MTT, 72 h, human metastatic colon cancer) was 6.8 ± 0.55 µM and the IC50 (HaCaT [4]) was 15.1 ± 2.76 µM. It also gave an IC50 ([5]; Table S7, >100 entered as 100, read-out: mean anticancer IC50) of 11.6 µM, an IC50 ([5]; read-out: average IC50 against tested cancer cell lines) of 11.6 µM and a viability at 72 h (Trypan blue assay) of 96%. For the same molecule, the cell number (HaCaT [6]; mean) was 4.26 x106, the “reduction of number of cells” value (HaCaT [6]; vs control) was 31.9% and the cell number (PC3 [7]; mean) was 2.5 x106. For the same molecule, the “viability (%)” value (PC3 [7]; mean) was 94.33%, the “reduction of number of live cells” value (PC3 [7]; vs control) was 62.1% and the cell number (SW480 [8]; mean) was 0.72 x106. The “viability (%)” value (SW480 [8]; mean) was 93.66%, the “reduction of number of live cells” value (SW480 [8]; vs control) was 79.9% and the cell number (SW620 [9]; mean) was 1.86 x106. The “viability (%)” value (SW620 [9]; mean) was 98%, the “reduction of number of live cells” value (SW620 [9]; vs control) was 47.6% and the “Early apoptosis [%]” value (HaCaT [10]) was 8.90%. For the same molecule, the “Late apoptosis [%]” value (HaCaT [10]) was 3.40%, the “Necrosis [%]” value (HaCaT [10]) was 0.08% and the “Early apoptosis [%]” value (PC3 [11]) was 48.3%. The “Late apoptosis [%]” value (PC3 [11]) was 44.75% and 44.8%, the “Necrosis [%]” value (PC3 [11]) was 0.65% and the “Early apoptosis [%]” value (SW480 [12]) was 1.95%. For the same molecule, the “Late apoptosis [%]” value (SW480 [12]) was 48.95%, the “Necrosis [%]” value (SW480 [12]) was 1.80% and the “Early apoptosis [%]” value (SW620 [13]; mean) was 11.75%. The “Late apoptosis [%]” value (SW620 [13]; mean) was 8.80%, the “Necrosis [%]” value (SW620 [13]; mean) was 1.45% and the “both late apoptosis and necrosis” value (SW620 [13]; sum) was 10.25%. For the same molecule, the IL-6 concentration (IL-6 in HaCaT cells; ELISA) was 7.5 ± 1.13 pg/mL, the “reduction of IL-6 concentration” value (IL-6 in HaCaT cells; vs control) was 26.5% and the IL-6 concentration (IL-6 in PC3 cells; ELISA) was 0.6 ± 0.09 pg/mL. For the same molecule, the “reduction of IL-6 level” value (IL-6 in PC3 cells; vs control) was 87.2%, the IL-6 concentration (IL-6 in SW480 cells; ELISA) was 0.9 ± 0.33 pg/mL and the “reduction of IL-6 level” value (IL-6 in SW480 cells; vs control) was 77.6%. The IL-6 concentration (IL-6 in SW620 cells; ELISA) was 0.9 ± 0.27 pg/mL and the “reduction of IL-6 level” value (IL-6 in SW620 cells; vs control) was 69.1%.
